This is an account of results in a polymer gas permeability compilation.

For `*Oc1c(C)cc(C(c2cc(C)c(Oc3ccc(S(=O)(=O)c4ccc(*)cc4)cc3)c(C)c2)(C(F)(F)F)C(F)(F)F)cc1C` (repeat unit), the CH4 permeability is 3 Barrer, the CO2 permeability was 72 Barrer, the N2 permeability stood at 4 Barrer and the O2 permeability was determined as 18 Barrer.
In turn, `*c1ccc(-c2ccc(N3C(=O)c4ccc([Si](C)(C)c5ccc6c(c5)C(=O)N(*)C6=O)cc4C3=O)c(OC)c2)cc1OC` (repeat unit) showed an H2 permeability of 9.33 Barrer, an N2 permeability of 0.096 Barrer and an O2 permeability of 0.53 Barrer.
The like results for `*c1c(C)c(C)c(N2C(=O)c3ccc(C(=O)c4ccc5c(c4)C(=O)N(*)C5=O)cc3C2=O)c(C)c1C` (repeat unit) were, in that order, 108 Barrer, 2.63 Barrer and 11.8 Barrer.
In the case of `*OC(=O)Oc1c(Cl)cc(C(C)(C)c2cc(Cl)c(*)c(Cl)c2)cc1Cl` (repeat unit), the CH4 permeability turned out to be 0.223 Barrer, the CO2 permeability is 6.68 Barrer, the N2 permeability stood at 0.36 Barrer and the O2 permeability turned out to be 2.29 Barrer.
`*c1c(C)c(C)c(N2C(=O)c3ccc(Oc4c(C)ccc(C)c4Oc4ccc5c(c4)C(=O)N(*)C5=O)cc3C2=O)c(C)c1C` (repeat unit): the CH4 permeability is 1.9 Barrer, the CO2 permeability amounted to 63 Barrer, the H2 permeability came out at 100 Barrer and the N2 permeability was found to be 2.05 Barrer. Besides, the O2 permeability worked out at 11 Barrer.
The corresponding values for `*OCC1OC(COCC)C(*)C(OCC)C1OCC` (repeat unit) are 6.1 Barrer, 67.7 Barrer, 54.4 Barrer, 3.18 Barrer and 11.9 Barrer.
`*Nc1ccc(C(C)(C)c2ccc(NC(=O)c3ccc(Oc4cc(C(C)(C)C)c(Oc5ccc(C(*)=O)cc5)cc4C(C)(C)C)cc3)c(C)c2)cc1C` (repeat unit) came in with a CH4 permeability of 0.9 Barrer, a CO2 permeability of 21 Barrer, an N2 permeability of 0.81 Barrer and an O2 permeability of 4.5 Barrer.
`*OC1OC(COC(=O)NC(C)(C)C)C(*)C(OC(C)=O)C1OC(C)=O` (repeat unit) displayed a CH4 permeability of 1.4 Barrer, a CO2 permeability of 28.5 Barrer, an H2 permeability of 31 Barrer and an N2 permeability of 0.98 Barrer. Moreover, the O2 permeability came to 4.3 Barrer.
`*Oc1ccc(Oc2ccc3c(c2)-c2nc4cc(Oc5ccc6nc7n(c6c5)C(=O)c5cc(*)ccc5-7)ccc4n2C3=O)cc1` (repeat unit) yielded an H2 permeability of 5.34 Barrer, an N2 permeability of 0.036 Barrer and an O2 permeability of 0.23 Barrer.
For the compound `*OC(=O)c1cccc(C(=O)Oc2c(C)cc(C(C)(C)c3cc(C)c(O*)c(C)c3)cc2C)c1` (repeat unit), the CH4 permeability was 0.53 Barrer, the CO2 permeability was 24 Barrer, the N2 permeability came to 0.68 Barrer and the O2 permeability was determined as 3.5 Barrer.
The compound `*C(C(=O)OC(C)C)C(*)C(=O)OC(C)CC(C)C` (repeat unit) showed an H2 permeability of 156 Barrer, an N2 permeability of 14 Barrer and an O2 permeability of 45 Barrer.
In turn, `*CC(*)c1ccccc1` (repeat unit) came in with a CH4 permeability of 0.785 Barrer, a CO2 permeability of 12.4 Barrer, an H2 permeability of 26.1 Barrer and an N2 permeability of 0.53 Barrer. Also, the O2 permeability was 2.9 Barrer.
Regarding `*c1ccc(-c2ccc(Oc3ccc4c(c3)C3(CC4(C)C)CC(C)(C)c4ccc(Oc5ccc(-c6ccc(N7C(=O)c8ccc(C(c9ccc%10c(c9)C(=O)N(*)C%10=O)(C(F)(F)F)C(F)(F)F)cc8C7=O)cc6)cc5C(F)(F)F)cc43)c(C(F)(F)F)c2)cc1` (repeat unit), the CH4 permeability turned out to be 1.21 Barrer, the CO2 permeability was 53 Barrer, the N2 permeability was determined as 3.35 Barrer and the O2 permeability is 36.1 Barrer.
In turn, `*c1cccc(Oc2ccc(C(c3ccc(Oc4cccc(-n5c(=O)c6cc7c(=O)n(*)c(=O)c7cc6c5=O)c4)cc3)(C(F)(F)F)C(F)(F)F)cc2)c1` (repeat unit) came in with a CH4 permeability of 0.17 Barrer, a CO2 permeability of 6.12 Barrer, an H2 permeability of 19 Barrer and an N2 permeability of 0.292 Barrer. This compound came in with an O2 permeability of 1.4 Barrer.
The compound `*CC(*)(C)C(=O)OCCOCCOCCOCC` (repeat unit) came in with a CH4 permeability of 4.8 Barrer, a CO2 permeability of 74.4 Barrer, an N2 permeability of 2 Barrer and an O2 permeability of 3.9 Barrer.
Take `*c1ccc(Cc2ccc(N3C(=O)c4ccc(S(=O)(=O)c5ccc6c(c5)C(=O)N(*)C6=O)cc4C3=O)cc2)cc1` (repeat unit): the H2 permeability turned out to be 6.32 Barrer, the N2 permeability worked out at 0.032 Barrer and the O2 permeability came out at 0.296 Barrer.
`*CC(*)[Si](C)(C)c1ccccc1` (repeat unit) yielded a CO2 permeability of 12.3 Barrer, an N2 permeability of 0.45 Barrer and an O2 permeability of 2.47 Barrer.
For the compound `*Nc1ccc(*)cc1OCC` (repeat unit), the CO2 permeability came to 2.22 Barrer, the H2 permeability came to 8.1 Barrer, the N2 permeability came to 0.107 Barrer and the O2 permeability was 0.62 Barrer.
Turning to `*c1ccc(Oc2ccc(N3C(=O)c4ccc(C(c5ccc6c(c5)C(=O)N(*)C6=O)(C(F)(F)F)C(F)(F)F)cc4C3=O)cc2)cc1` (repeat unit), the CH4 permeability was determined as 0.407 Barrer, the CO2 permeability worked out at 20.6 Barrer, the H2 permeability was 44 Barrer and the N2 permeability came out at 0.797 Barrer. This compound also had an O2 permeability of 4.21 Barrer.
The compound `*O[Si](C)(C)CCCCCCCC[Si](*)(C)C` (repeat unit) yielded a CH4 permeability of 360 Barrer, a CO2 permeability of 1200 Barrer and an O2 permeability of 237 Barrer.
`*c1c(C)cc(Cc2cc(C)c(N3C(=O)c4ccc(C(c5ccc6c(c5)C(=O)N(*)C6=O)(C(F)(F)F)C(F)(F)F)cc4C3=O)c(C)c2)cc1C` (repeat unit) returned a CH4 permeability of 1.45 Barrer, a CO2 permeability of 43.9 Barrer, an N2 permeability of 2.13 Barrer and an O2 permeability of 10.3 Barrer.
`*c1c(C)cc(-c2cc(C)c(N3C(=O)c4cc5c(cc4C3=O)C3(C)CCC5(C)c4cc5c(cc43)C(=O)N(*)C5=O)c3ccccc23)c2ccccc12` (repeat unit) returned a CH4 permeability of 230 Barrer, a CO2 permeability of 4300 Barrer, an H2 permeability of 3420 Barrer and an N2 permeability of 208 Barrer. Moreover, the O2 permeability turned out to be 901 Barrer.
The corresponding values for `*C(C)=C(*)CCCCCCC` (repeat unit) are 83.5 Barrer, 290 Barrer, 145 Barrer, 29 Barrer and 72.5 Barrer.
`*C(=C(*)c1ccc(C(C)(C)C)cc1)c1ccccc1` (repeat unit) came in with a CO2 permeability of 6200 Barrer, an N2 permeability of 930 Barrer and an O2 permeability of 1710 Barrer.
Compound `*Oc1ccc(S(=O)(=O)c2ccc(Oc3c(C)cc(-c4cc(C)c(*)c(C)c4C)c(C)c3C)cc2)cc1` (repeat unit) gave a CH4 permeability of 0.944 Barrer, a CO2 permeability of 25.5 Barrer, an N2 permeability of 1.2 Barrer and an O2 permeability of 6 Barrer.
The corresponding values for `*c1ccc(Oc2ccc(N3C(=O)c4cc(Oc5ccc(C)cc5)c(-c5cc6c(cc5Oc5ccc(C)cc5)C(=O)N(*)C6=O)cc4C3=O)cc2)cc1` (repeat unit) are 1.45 Barrer, 44 Barrer, 1.25 Barrer and 4.99 Barrer.
For `*c1ccc(N2C(=O)c3ccc([Si](C)(C)c4ccc5c(c4)C(=O)N(*)C5=O)cc3C2=O)cc1` (repeat unit), the CH4 permeability turned out to be 0.064 Barrer, the CO2 permeability came to 2.75 Barrer, the H2 permeability was 9.4 Barrer and the N2 permeability stood at 0.105 Barrer. This compound also returned an O2 permeability of 0.6 Barrer.
The like results for `*C(=C(*)c1ccc2c(c1)C(C)(C)CC2(C)C)c1ccc(Br)cc1` (repeat unit) were, in that order, 22400 Barrer, 32800 Barrer, 20700 Barrer, 9200 Barrer and 11400 Barrer.
The corresponding values for `*Oc1ccc(C(C)(C)c2ccc(OC(=O)c3cc(C(*)=O)cc(C(C)(C)C)c3)c(C)c2)cc1C` (repeat unit) are 0.4 Barrer, 8 Barrer, 27.1 Barrer, 0.393 Barrer and 2.37 Barrer.
Consider `*c1ccc(Oc2ccc3ccccc3c2-c2c(Oc3ccc(N4C(=O)c5ccc(C(c6ccc7c(c6)C(=O)N(*)C7=O)(C(F)(F)F)C(F)(F)F)cc5C4=O)cc3C)ccc3ccccc23)c(C)c1` (repeat unit), for which the CH4 permeability is 0.28 Barrer, the CO2 permeability turned out to be 18.4 Barrer, the H2 permeability worked out at 26.2 Barrer and the N2 permeability was 0.53 Barrer. This compound had an O2 permeability of 3.35 Barrer.
The corresponding values for `*Oc1c(C)cc(C(C)(C)c2cc(C)c(OC(=O)c3cccc(C(*)=O)c3)c(C)c2)cc1C` (repeat unit) are 0.472 Barrer, 12 Barrer, 38.6 Barrer, 0.579 Barrer and 3.26 Barrer.
The corresponding values for `*/C=C/C1CC(*)CC1[Si](C)(C)C` (repeat unit) are 17 Barrer, 89 Barrer, 140 Barrer, 7.2 Barrer and 30 Barrer.
The corresponding values for `*c1ccc(C(c2ccc(N3C(=O)c4ccc(C(=O)c5ccc6c(c5)C(=O)N(*)C6=O)cc4C3=O)cc2)(C(F)(F)F)C(F)(F)F)cc1` (repeat unit) are 0.191 Barrer, 17.5 Barrer, 30.8 Barrer, 0.375 Barrer and 2.18 Barrer.
In the case of `*/C=C/c1ccc(*)cc1[Si](CC)(CC)CC` (repeat unit), the CO2 permeability is 24 Barrer, the N2 permeability was determined as 1.8 Barrer and the O2 permeability amounted to 6.6 Barrer.
